Laboratory results from patent US20170304388A1, “NEW INDICATION OF CARDIOVASCULAR DRUGS FOR PREPARATION OF CANCER INHIBITION PHARMACEUTICAL COMPOSITION” (LAUNX BIOMEDICAL CO., LTD., priority 2014, published 2017).

How the values were obtained:
Type in all cases: cell-based
[1] = system: HCT116 (Colorectal Carcinoma); assay: Cell viability analysis (WST-1), HCT116; details: Table 4, repeated experiments, drug 10 μM; for viability at 10 µM: Homo sapiens, HCT-116, 72 h, WST-1, read-out: survival rate (viability) of cancer cells, HCT116
TOV-21G = assay: Cell viability analysis (WST-1), TOV-21G; details: Table 4, repeated experiments, drug 10 μM; for viability at 10 µM: Homo sapiens, TOV21G, 72 h, read-out: survival rate (viability) of cancer cells, TOV-21G
Method: (§1) Subculture the different types of cancer cells. The cancer cells includes lung cancer, gastric cancer, hepatic cancer, colon cancer, skin cancer, cervical cancer, prostate cancer, bladder cancer, breast cancer, leukemia, pancreatic cancer, ovarian cancer, tongue cancer, osteosarcoma, and renal cancer. The cell numbers were counted and reseed as 2×10^6 in cell culture plate/flask. Then, the culture medium for culturing the cell lines was added to a volume of 10 ml, and the cells were cultured for 2-3 days. Then, the cells were suspended for loading into 96-well plates. The cell number was 3000 cells and the volume of the culture medium was 100 ul each well.
(§2) Removing the original culture medium from 96-well plate. Then add 100 μl of commercially drug at a concentration of 10 μM per well. After 72 hours, add the diluted WST-1 reagent to the well with 100 μl/well, and the diluted WST-1 reagent was acquired from the dilution of 9:1 medium and WST-1 stock reagent. Finally, the total volume of each well are 200 μl/well. Culture the 96-well plate at 37° C. for 30 to 90 minutes. Detecting and calculating the survival rate of each cancer cells with an ELISA reader at OD450 nm. The lower viability of cancer cells represents better inhibition effect via the drugs. Otherwise, the higher viability of cancer cells represents worse inhibition effect via the drugs.
(§3) According to the above mentioned cardiovascular drugs for cancer growth inhibition in Table 3, the inventors took the repeat experiments for the cardiovascular drugs to check the growth inhibitory effects of cancer cells by the cardiovascular drugs. […] 4.

[2] = system: TSGH-8301 (Urinary Bladder Carcinoma); assay: Cell viability analysis (WST-1), TSGH-8301; details: 72 h, Table 4, repeated experiments, drug 10 μM, WST-1, read-out: survival rate (viability) of cancer cells, TSGH-8301
MDA-MB231 = assay: Cell viability analysis (WST-1), MDA-MB231; details: Table 4, repeated experiments, drug 10 μM; for viability at 10 µM: Homo sapiens, MDA-MB-231, 72 h, read-out: survival rate (viability) of cancer cells, MDA-MB231
U2OS = assay: Cell viability analysis (WST-1), U2OS; details: Homo sapiens, U2OS, 72 h, Table 4, repeated experiments, drug 10 μM, read-out: survival rate (viability) of cancer cells, U2OS
Method: as §1, §2, §3

T24 = assay: Cell viability analysis (WST-1), T24; details: Homo sapiens, T-24, 72 h, Table 4, repeated experiments, drug 10 μM, read-out: survival rate (viability) of cancer cells, T24
Method: as §1, §2, §3

BxPC-3 = assay: Cell viability analysis (WST-1), BxPC-3; details: Homo sapiens, BXPC-3, 72 h, Table 4, repeated experiments, drug 10 μM, read-out: survival rate (viability) of cancer cells, BxPC-3
Method: as §1, §2, §3

[3] = system: HeLa (Cervix Adenocarcinoma); assay: Cell viability analysis (WST-1), HeLa; details: Table 4, repeated experiments, drug 10 μM; for viability at 10 µM: Homo sapiens, HeLa, 72 h, WST-1, read-out: survival rate (viability) of cancer cells, HeLa
[4] = system: H1650 (Lung Adenocarcinoma); assay: Cell viability analysis (WST-1), H1650; details: Table 4, repeated experiments, drug 10 μM; for viability at 10 µM: Homo sapiens, NCI-H1650, 72 h, WST-1, read-out: survival rate (viability) of cancer cells, H1650
[5] = system: MCF7 (Mammary Gland, Adenocarcinoma); assay: Cell viability analysis (WST-1), MCF7; details: Table 4, repeated experiments, drug 10 μM; for viability at 10 µM: Homo sapiens, MCF7, 72 h, WST-1, read-out: survival rate (viability) of cancer cells, MCF-7
C-33A = assay: Cell viability analysis (WST-1), C-33A; details: Table 4, repeated experiments, drug 10 μM; for viability at 10 µM: Homo sapiens, C-33-A, 72 h, read-out: survival rate (viability) of cancer cells, C-33A
Method: as §1, §2, §3

SAS = assay: Cell viability analysis (WST-1), SAS; details: 72 h, Table 4, repeated experiments, drug 10 μM, read-out: survival rate (viability) of cancer cells, SAS
Method: as §1, §2, §3

786-O = assay: Cell viability analysis (WST-1), 786-O; details: Homo sapiens, 786-0, 72 h, Table 4, repeated experiments, drug 10 μM, read-out: survival rate (viability) of cancer cells, 786-O
Method: as §1, §2, §3

[6] = system: A549 (Lung Adenocarcinoma); assay: Cell viability analysis (WST-1), A549; details: Table 4, repeated experiments, drug 10 μM; for viability at 10 µM: Homo sapiens, A549, 72 h, WST-1, read-out: survival rate (viability) of cancer cells, A549
Hep3B = assay: Cell viability analysis (WST-1), Hep3B; details: Table 4, repeated experiments, drug 10 μM; for viability at 10 µM: Homo sapiens, Hep3B, 72 h, read-out: survival rate (viability) of cancer cells, Hep3B
Method: as §1, §2, §3

[7] = system: LoVo (Colorectal Adenocarcinoma); assay: Cell viability analysis (WST-1), LoVo; details: Table 4, repeated experiments, drug 10 μM; for viability at 10 µM: Homo sapiens, LoVo, 72 h, WST-1, read-out: survival rate (viability) of cancer cells, LoVo
[8] = system: A375 (Amelanotic Melanoma); assay: Cell viability analysis (WST-1), A375; details: Table 4, repeated experiments, drug 10 μM; for viability at 10 µM: Homo sapiens, A-375, 72 h, WST-1, read-out: survival rate (viability) of cancer cells, A375
[9] = system: PC3 (Prostate Adenocarcinoma); assay: Cell viability analysis (WST-1), PC3; details: Table 4, repeated experiments, drug 10 μM; for viability at 10 µM: 72 h, WST-1, read-out: survival rate (viability) of cancer cells, PC-3
NIH-OVCAR-3 = assay: Cell viability analysis (WST-1), NIH-OVCAR-3; details: Table 4, repeated experiments, drug 10 μM; for viability at 10 µM: Homo sapiens, OVCAR-3, 72 h, read-out: survival rate (viability) of cancer cells, NIH-OVCAR-3
Method: as §1, §2, §3

AsPC-1 = assay: Cell viability analysis (WST-1), AsPC-1; details: Table 4, repeated experiments, drug 10 μM; for viability at 10 µM: Homo sapiens, ASPC1, 72 h, read-out: survival rate (viability) of cancer cells, AsPC-1
Method: as §1, §2, §3

[10] = system: AGS (Gastric Adenocarcinoma); assay: Cell viability analysis (WST-1), AGS; details: 72 h, Table 4, repeated experiments, drug 10 μM, WST-1, read-out: survival rate (viability) of cancer cells, AGS
[11] = system: MKN-45 (Gastric Adenocarcinoma); assay: Cell viability analysis (WST-1), MKN-45; details: Homo sapiens, MKN-45, 72 h, Table 4, repeated experiments, drug 10 μM, WST-1, read-out: survival rate (viability) of cancer cells, MKN-45
[12] = system: HepG2 (Hepatocellular Carcinoma); assay: Cell viability analysis (WST-1), HepG2; details: Table 4, repeated experiments, drug 10 μM; for viability at 10 µM: Homo sapiens, HepG2, 72 h, WST-1, read-out: survival rate (viability) of cancer cells, HepG2
cancer cell lines = assay: Growth inhibitory effects on the panel of cancer cell lines; details: drug 10 μM, 72 hours, WST-1
BCC = assay: Cell viability analysis (WST-1), BCC; details: Table 4, repeated experiments, drug 10 μM; for viability at 10 µM: BCC, 72 h, read-out: survival rate (viability) of cancer cells, BCC

SMILES: COc1ccc(-c2nc3ccc(C4=NNC(=O)CC4C)cc3[nH]2)cc1 (stereo not shown) [Pimobendan (Vetmedin), Pimobendan]
- viability at 10 µM [1]: 53.6%
- viability at 10 µM (TOV-21G): 70.7%
- viability at 10 µM [2]: 59.4%
- viability at 10 µM (MDA-MB231): 75%
- viability at 10 µM (U2OS): 56.6%
- viability at 10 µM (T24): 74.2%
- viability at 10 µM (BxPC-3): 51.9%
- viability at 10 µM [3]: 34%
- viability at 10 µM [4]: 77.8%
- viability at 10 µM [5]: 53.9%
- viability at 10 µM (C-33A): 62.8%
- viability at 10 µM (SAS): 51.1%
- viability at 10 µM (786-O): 39.6%
- viability at 10 µM [6]: 58.3%
- viability at 10 µM (Hep3B): 94.8%
- viability at 10 µM [7]: 66.7%
- viability at 10 µM [8]: 44.4%
- viability at 10 µM [9]: 69.5%
- viability at 10 µM (NIH-OVCAR-3): 74.7%
- viability at 10 µM (AsPC-1): 69.3%
- viability at 10 µM [10]: 60.8%
- viability at 10 µM [11]: 65.2%
- viability at 10 µM [12]: 87.2%
- inhibition effect on different cancer cell lines (in words) (cancer cell lines): significant inhibition effect
- viability at 10 µM (BCC): 49.6%

SMILES: COC(=O)C1=C(C)NC(C)=C(C(=O)OCC(C)C)C1c1ccccc1[N+](=O)[O-] (stereo not shown) [Nisoldipine (Sular), Nisoldipine]
- viability at 10 µM [1]: 77.4%
- viability at 10 µM (TOV-21G): 44.4%
- viability at 10 µM [2]: 77.9%
- viability at 10 µM (MDA-MB231): 74.1%
- viability at 10 µM (U2OS): 69.1%
- viability at 10 µM (T24): 67.8%
- viability at 10 µM (BxPC-3): 75.6%
- viability at 10 µM [3]: 76.9%
- viability at 10 µM [4]: 70%
- viability at 10 µM [5]: 86.6%
- viability at 10 µM (C-33A): 66%
- viability at 10 µM (SAS): 48.8%
- viability at 10 µM (786-O): 49.5%
- viability at 10 µM [6]: 48.9%
- viability at 10 µM (Hep3B): 130%
- viability at 10 µM [7]: 76.9%
- viability at 10 µM [8]: 51.5%
- viability at 10 µM [9]: 98.9%
- viability at 10 µM (NIH-OVCAR-3): 68.1%
- viability at 10 µM (AsPC-1): 78.8%
- viability at 10 µM [10]: 64.7%
- viability at 10 µM [11]: 98%
- viability at 10 µM [12]: 95.5%
- viability at 10 µM (BCC): 58.8%

SMILES: CCOC(=O)C1=C(COCCN)NC(C)=C(C(=O)OC)C1c1ccccc1Cl (stereo not shown) [Amlodipine (Norvase), Amlodipine]
- survival rate (viability) of cancer cells, HCT116 ([1]; 72 hours, WST-1): 91.96
- survival rate (viability) of cancer cells, TOV-21G (TOV-21G; 72 hours): 61.32
- viability at 10 µM [2]: 36.2%
- survival rate (viability) of cancer cells, MDA-MB231 (MDA-MB231; 72 hours): 87.55
- viability at 10 µM (U2OS): 78.9%
- viability at 10 µM (T24): 96.6%
- viability at 10 µM (BxPC-3): 86%
- survival rate (viability) of cancer cells, HeLa ([3]; 72 hours, WST-1): 86.96
- survival rate (viability) of cancer cells, H1650 ([4]; 72 hours, WST-1): 72.01
- survival rate (viability) of cancer cells, MCF-7 ([5]; 72 hours, WST-1): 63.42
- survival rate (viability) of cancer cells, C-33A (C-33A; 72 hours): 38.18
- viability at 10 µM (SAS): 99.2%
- viability at 10 µM (786-O): 81.4%
- survival rate (viability) of cancer cells, A549 ([6]; 72 hours, WST-1): 89.22
- survival rate (viability) of cancer cells, Hep3B (Hep3B; 72 hours): 99.22
- survival rate (viability) of cancer cells, LoVo ([7]; 72 hours, WST-1): 90.33
- survival rate (viability) of cancer cells, A375 ([8]; 72 hours, WST-1): 81.58
- survival rate (viability) of cancer cells, PC-3 ([9]; 72 hours, WST-1): 85.88
- survival rate (viability) of cancer cells, NIH-OVCAR-3 (NIH-OVCAR-3; 72 hours): 90.31
- survival rate (viability) of cancer cells, AsPC-1 (AsPC-1; 72 hours): 89.04
- viability at 10 µM [10]: 16.5%
- viability at 10 µM [11]: 88.2%
- survival rate (viability) of cancer cells, HepG2 ([12]; 72 hours, WST-1): 71.76
- survival rate (viability) of cancer cells, BCC (BCC; 72 hours): 74.9299

SMILES: CC(C)n1c(/C=C/C(O)CC(O)CC(=O)O)c(-c2ccc(F)cc2)c2ccccc21 (stereo not shown) [Fluvastatin sodium (Lescol), Fluvastatin sodium]
- viability at 10 µM [1]: 55%
- viability at 10 µM (TOV-21G): 50.5%
- viability at 10 µM [2]: 78.2%
- viability at 10 µM (MDA-MB231): 43%
- viability at 10 µM (U2OS): 91.2%
- viability at 10 µM (T24): 71.8%
- viability at 10 µM (BxPC-3): 79.1%
- viability at 10 µM [3]: 54.3%
- viability at 10 µM [4]: 73.1%
- viability at 10 µM [5]: 82.5%
- viability at 10 µM (C-33A): 89.5%
- viability at 10 µM (SAS): 81.5%
- viability at 10 µM (786-O): 23.6%
- viability at 10 µM [6]: 98.8%
- viability at 10 µM (Hep3B): 109%
- viability at 10 µM [7]: 100%
- viability at 10 µM [8]: 21.8%
- viability at 10 µM [9]: 32.1%
- viability at 10 µM (NIH-OVCAR-3): 84.7%
- viability at 10 µM (AsPC-1): 83.6%
- viability at 10 µM [10]: 52%
- viability at 10 µM [11]: 65.3%
- viability at 10 µM [12]: 104%
- viability at 10 µM (BCC): 27%
